According to patent US6319910A, “Method for inhibiting cyclooxygenase-2 and tumor necrosis factor alpha” (Hospital for Joint Diseases, priority 1998, dated 2001):

Key:
COX-2 [1] = biological target: T1, COX-2 (Mus musculus, UniProt Q05769); test: COX-2 specific activity in cell-free extracts of LPS-stimulated RAW 264.7 cells (PGE2 by RIA); assay type: biochemical, murine
T1 construct: using total unfractionated cell extracts; endogenous in cells; host or cells: RAW 264.7 cells, LPS-induced; cell-free extract
T1 sequence (Q05769 18-604): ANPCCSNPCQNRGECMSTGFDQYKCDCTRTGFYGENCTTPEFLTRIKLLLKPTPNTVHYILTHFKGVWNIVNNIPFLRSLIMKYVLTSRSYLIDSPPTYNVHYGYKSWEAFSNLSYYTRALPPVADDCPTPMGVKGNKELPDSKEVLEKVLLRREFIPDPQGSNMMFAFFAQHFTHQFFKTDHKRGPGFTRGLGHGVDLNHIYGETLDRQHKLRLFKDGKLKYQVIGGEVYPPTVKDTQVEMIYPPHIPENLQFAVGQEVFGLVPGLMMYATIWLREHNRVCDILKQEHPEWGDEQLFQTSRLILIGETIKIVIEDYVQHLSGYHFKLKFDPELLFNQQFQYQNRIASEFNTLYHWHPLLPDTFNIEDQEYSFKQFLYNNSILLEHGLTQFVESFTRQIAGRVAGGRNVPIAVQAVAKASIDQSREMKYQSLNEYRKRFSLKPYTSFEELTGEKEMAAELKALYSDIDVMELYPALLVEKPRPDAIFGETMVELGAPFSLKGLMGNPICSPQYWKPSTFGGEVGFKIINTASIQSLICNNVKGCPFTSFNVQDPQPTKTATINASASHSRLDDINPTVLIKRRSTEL
Protocol: Raw 264.7 cells were stimulated with LPS and cell-free extracts were prepared as follows. RAW 264.7 cells were induced with LPS (100 ng/ml) in the presence or absence of tetracyclines or hydrocortisone for 14-20 hours. Following induction, the cells were pelleted at 4° C. and resuspended in Tris buffer: 10 mM, pH 7.4 containing 10 μg/ml each of chymostatin, antipain, leupeptin and pepstatin, 1 mM DDT and 1 mM PMSF. Cells were lysed in a Polytron PA 1200 homogenizer (Kinematica AG, Switzerland) with the cocktail of protease inhibitors after 3 cycles of rapid freeze-thawing. The lysate was centrifuged at 18,000 at 4° C. in an eppendorf centrifuge, and the resulting supernatant was used as cell-free extracts. The protein was measured by BCA assay reagent (Pierce, Rockford, Ill.) using BSA as standard. […] The specific enzyme activity was defined as ng of PGE2 released/mg protein/37° C. for 20 minutes.
RAW 264.7 cells were stimulated with 1 μg/ml of LPS for 16 hours and cell-free extracts were prepared as described above. The extracts were incubated with different modulators for 20 minutes at 37° C. before adding the substrate to initiate the enzyme reaction, which was terminated after 30 minutes by heat inactivation. The data represent one of the two experiments, the PGE2 analysis from each sample was done in triplicates n=3. The p value is a comparison between control and experimentals.

COX-2 [2] = test: COX-2 expression in cells/cartilage (general statement); assay type: cell-based; conditions: words
NOS = NOS expression in LPS-stimulated murine macrophages; assay type: cell-based; conditions: FIG. 2; LPS 100 ng/ml; words
Protocol: RAW 263.7 cells were grown as previously described (Amin et al, 1995b). Murine macrophages stimulated with 100 ng/ml LPS were incubated with CMT-3 or tunicamycin (a glycosylation inhibitor). […] Nitrite and PGE2 were estimated as previously described (Amin et al, 1995b). It is quite possible that CMT-3 may inhibit COX-2 and PGE2 production by post translational modification of COX-2 which may be similar to tunicamycin inhibition. The data represents the mean±SD evaluated by T test (n=3).

SMILES: NC(=O)C1=C(O)C2(O)C(=O)C3=C(O)c4c(O)cccc4CC3CC2CC1=O (stereo not shown) [CMT-3, 6-demethyl-6-deoxy-4-dedimethylaminotetracycline]
- Effect on specific activity of COX-2 (COX-2 [1]; CMT-3 27 μM, CMT-8 27 μM, aspirin 56 μM, indomethacin 28 μM, words): significantly inhibited the specific activity of COX-2
- COX-2 Specific Activity (COX-2 [1]; Table 3, cell-free extracts, 10 μg (aspirin amount not given)): 2.8 ± 4.0 PGE2 ng/mg protein
- Effect on COX-2 expression (COX-2 [2]): inhibits COX-2 expression and PGE2 production
- Effect on NOS expression (NOS): inhibit
